Reference: publication PMC9520563 (ACS Omega, 2022)

Tests used:
HepG2 [1] = conditions: IC50 on LLC-PK1 divided by IC50 on HepG2
MDA-MB-231 [2] = assay: cells; conditions: Homo sapiens, MDA-MB-231, 72 h, read-out: IC50 MDA-MB-231
HepG2 [3] = assay: cells; conditions: Homo sapiens, HepG2, 72 h, read-out: IC50 HepG2
porcine brain tubulin = porcine brain tubulin (Sus scrofa, UniProt P02550+P02554); assay: biochemical; conditions: read-out: % inhibition of tubulin polymerization
MDA-MB-231 [4] = conditions: IC50 on LLC-PK1 divided by IC50 on MDA-MB-231

porcine brain tubulin, sequence (P02550 whole entry): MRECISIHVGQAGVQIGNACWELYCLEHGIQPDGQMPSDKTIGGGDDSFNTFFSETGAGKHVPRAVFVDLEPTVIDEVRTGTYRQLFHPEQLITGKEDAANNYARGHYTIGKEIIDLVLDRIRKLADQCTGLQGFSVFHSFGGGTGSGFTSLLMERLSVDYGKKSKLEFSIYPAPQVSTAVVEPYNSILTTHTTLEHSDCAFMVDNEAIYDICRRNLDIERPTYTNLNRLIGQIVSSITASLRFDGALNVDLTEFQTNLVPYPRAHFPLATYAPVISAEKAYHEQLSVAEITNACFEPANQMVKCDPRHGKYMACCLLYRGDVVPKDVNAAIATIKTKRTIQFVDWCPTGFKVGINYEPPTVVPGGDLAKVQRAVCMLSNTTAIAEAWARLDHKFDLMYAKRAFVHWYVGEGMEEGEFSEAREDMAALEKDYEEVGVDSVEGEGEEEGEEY
porcine brain tubulin, sequence (P02554 whole entry): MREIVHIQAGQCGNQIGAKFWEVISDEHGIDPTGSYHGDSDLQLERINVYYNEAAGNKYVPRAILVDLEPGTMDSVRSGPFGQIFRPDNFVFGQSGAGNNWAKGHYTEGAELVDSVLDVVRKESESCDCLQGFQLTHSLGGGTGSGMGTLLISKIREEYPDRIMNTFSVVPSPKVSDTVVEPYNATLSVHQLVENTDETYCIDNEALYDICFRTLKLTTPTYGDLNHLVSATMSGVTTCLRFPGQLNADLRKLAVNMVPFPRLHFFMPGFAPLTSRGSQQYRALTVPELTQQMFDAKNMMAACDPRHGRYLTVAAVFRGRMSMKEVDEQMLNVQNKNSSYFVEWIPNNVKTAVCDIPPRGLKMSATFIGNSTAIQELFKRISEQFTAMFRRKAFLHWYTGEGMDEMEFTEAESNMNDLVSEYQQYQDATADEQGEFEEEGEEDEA

| Structure (SMILES) | IC50 (MDA-MB-231 [2]) | IC50 (HepG2 [3]) | inhibition at 20 µM (porcine brain tubulin) | SI HepG2 (HepG2 [1]) | SI MDA-MB-231 (MDA-MB-231 [4]) |
| --- | --- | --- | --- | --- | --- |
| COc1cc(/C=C/C(=O)/C=C/c2c(C)nn(-c3ccccc3)c2Cl)cc(OC)c1O [Compound 7h, (1E,4E)-1-(5-Chloro-3-methyl-1-phenyl-1H-pyrazol-4-yl)-5-(4-hydroxy-3,5-dimethoxyphenyl)penta-1,4-dien-3-one] | 3.64 ± 0.02 µM | 6.03 ± 0.06 µM | 45.3 ± 0.81% | 2.14 | – |
| COc1cc(/C=C/C(=O)/C=C/c2c(C)nn(-c3cccc([N+](=O)[O-])c3)c2Cl)cc(OC)c1OC [Compound 8g, (1E,4E)-1-(5-Chloro-3-methyl-1-(3-nitrophenyl)-1H-pyrazol-4-yl)-5-(3,4,5-trimethoxyphenyl)penta-1,4-dien-3-one] | 2.43 ± 0.04 µM | 14.65 ± 0.1 µM | – | 0.40 | 2.44 |
| Cc1nn(-c2cccc([N+](=O)[O-])c2)c(Cl)c1/C=C/C(=O)/C=C/c1ccc2c(c1)OCO2 [Compound 8f, (1E,4E)-1-(Benzo[d][1,3]dioxol-5-yl)-5-(5-chloro-3-methyl-1-(3-nitrophenyl)-1H-pyrazol-4-yl)penta-1,4-dien-3-one] | > 25 µM | > 25 µM | – | – | – |
| COc1ccc(/C=C/C(=O)/C=C/c2c(C)nn(-c3cccc([N+](=O)[O-])c3)c2Cl)cc1OC [Compound 8a, (1E,4E)-1-[5-Chloro-3-methyl-1-(3-nitrophenyl)-1H-pyrazol-4-yl]-5-(3,4-dimethoxyphenyl)penta-1,4-dien-3-one] | 6.89 ± 0.31 µM | 7.19 ± 0.37 µM | 25.9 ± 0.33% | 2.93 | 3.05 |
| COc1cc(/C=C/C(=O)/C=C/c2cn(-c3ccccc3)nc2-c2ccccc2)cc(OC)c1O [Compound 10h, (1E,4E)-1-(1,3-Diphenyl-1H-pyrazol-4-yl)-5-(4-hydroxy-3,5-dimethoxyphenyl)penta-1,4-dien-3-one] | 4.06 ± 0.02 µM | 4.98 ± 0.09 µM | 25.73 ± 0.15% | 2.05 | 2.51 |
| COc1ccc(/C=C/C(=O)/C=C/c2c(C)nn(-c3cccc([N+](=O)[O-])c3)c2Cl)c(OC)c1 [Compound 8b, (1E,4E)-1-[5-Chloro-3-methyl-1-(3-nitrophenyl)-1H-pyrazol-4-yl]-5-(2,4-dimethoxyphenyl)penta-1,4-dien-3-one] | 12.3 ± 1.29 µM | 18.3 ± 3.14 µM | – | – | – |
| COc1cc(/C=C/C(=O)/C=C/c2c(C)nn(-c3ccccc3)c2Cl)cc(OC)c1OC [Compound 7g, (1E,4E)-1-(5-Chloro-3-methyl-1-phenyl-1H-pyrazol-4-yl)-5-(3,4,5-trimethoxyphenyl)penta-1,4-dien-3-one] | 7.84 ± 0.07 µM | 13.03 ± 0.12 µM | – | – | – |
| CCOc1cc(/C=C/C(=O)/C=C/c2c(C)nn(-c3ccccc3)c2Cl)ccc1O [Compound 7e, (1E,4E)-1-(5-Chloro-3-methyl-1-phenyl-1H-pyrazol-4-yl)-5-(4-hydroxy-3-ethoxyphenyl)penta-1,4-dien-3-one] | 13.5 ± 1.43 µM | 13.2 ± 1.41 µM | – | – | – |
| CC(=O)O[C@H]1C(=O)[C@@]2(C)[C@H]([C@H](OC(=O)c3ccccc3)[C@]3(O)C[C@H](OC(=O)[C@H](O)[C@@H](NC(=O)c4ccccc4)c4ccccc4)C(C)=C1C3(C)C)[C@]1(OC(C)=O)CO[C@@H]1C[C@@H]2O [paclitaxel, reference compound] | 8.79 ± 0.96 µM | 12 ± 0.56 µM | – | – | – |
| COc1cc(/C=C/C(=O)CC(=O)/C=C/c2ccc(O)c(OC)c2)ccc1O [curcumin, reference compound] | 20.7 ± 0.8 µM | 23.4 ± 7.27 µM | – | 1.51 | 1.72 |
| COc1cc(/C=C/C(=O)/C=C/c2c(C)nn(-c3cccc([N+](=O)[O-])c3)c2Cl)ccc1O [Compound 8c, (1E,4E)-1-[5-Chloro-3-methyl-1-(3-nitrophenyl)-1H-pyrazol-4-yl]-5-(4-hydroxy-3-methoxyphenyl)penta-1,4-dien-3-one] | 7 ± 0.02 µM | 16.6 ± 0.45 µM | – | – | – |
| COc1ccc(/C=C/C(=O)/C=C/c2c(C)nn(-c3ccccc3)c2Cl)c(OC)c1 [Compound 7b, (1E,4E)-1-(5-Chloro-3-methyl-1-phenyl-1H-pyrazol-4-yl)-5-(2,4-dimethoxyphenyl)penta-1,4-dien-3-one] | 13.3 ± 0.39 µM | > 25 µM | – | – | – |
| COc1ccc(/C=C/C(=O)/C=C/c2c(C)nn(-c3ccccc3)c2Cl)cc1OC [Compound 7a, (1E,4E)-1-(5-Chloro-3-methyl-1-phenyl-1H-pyrazol-4-yl)-5-(3,4-dimethoxyphenyl)penta-1,4-dien-3-one] | 6.6 ± 0.16 µM | 11.6 ± 1.2 µM | – | – | – |
| Cc1nn(-c2ccccc2)c(Cl)c1/C=C/C(=O)/C=C/c1ccc2c(c1)OCO2 [Compound 7f, (1E,4E)-1-(Benzo[d][1,3]dioxol-5-yl)-5-(5-chloro-3-methyl-1-phenyl-1H-pyrazol-4-yl)penta-1,4-dien-3-one] | 16.67 ± 0.07 µM | > 25 µM | – | – | – |
| COc1ccc(/C=C/C(=O)/C=C/c2c(C)nn(-c3cccc([N+](=O)[O-])c3)c2Cl)cc1O [Compound 8d, (1E,4E)-1-[5-Chloro-3-methyl-1-(3-nitrophenyl)-1H-pyrazol-4-yl]-5-(3-hydroxy-4-methoxyphenyl)penta-1,4-dien-3-one] | 7.25 ± 0.08 µM | 25.3 ± 0.3 µM | – | – | – |
| CCOc1cc(/C=C/C(=O)/C=C/c2c(C)nn(-c3cccc([N+](=O)[O-])c3)c2Cl)ccc1O [Compound 8e, (1E,4E)-1-[5-Chloro-3-methyl-1-(3-nitrophenyl)-1H-pyrazol-4-yl]-5-(4-hydroxy-3-ethoxyphenyl)penta-1,4-dien-3-one] | 15.1 ± 0.2 µM | 11.18 ± 0.04 µM | – | – | – |
| COc1ccc(/C=C/C(=O)/C=C/c2c(C)nn(-c3ccccc3)c2Cl)cc1O [Compound 7d, (1E,4E)-1-(5-Chloro-3-methyl-1-phenyl-1H-pyrazol-4-yl)-5-(3-hydroxy-4-methoxyphenyl)penta-1,4-dien-3-one] | 5.61 ± 0.24 µM | 14.2 ± 0.77 µM | 52 ± 0.65% | 1.14 | – |
| COc1cc(/C=C/C(=O)/C=C/c2c(C)nn(-c3ccccc3)c2Cl)ccc1O [Compound 7c, (1E,4E)-1-(5-Chloro-3-methyl-1-phenyl-1H-pyrazol-4-yl)-5-(4-hydroxy-3-methoxyphenyl)penta-1,4-dien-3-one] | 7.71 ± 0.32 µM | 8 ± 0.87 µM | – | 1.19 | 1.24 |
| COc1cc(/C=C/C(=O)/C=C/c2c(C)nn(-c3cccc([N+](=O)[O-])c3)c2Cl)cc(OC)c1O [Compound 8h, (1E,4E)-1-(5-Chloro-3-methyl-1-(3-nitrophenyl)-1H-pyrazol-4-yl)-5-(4-hydroxy-3,5-dimethoxyphenyl)penta-1,4-dien-3-one] | 2.56 ± 0.01 µM | 6.69 ± 0.04 µM | 22.1 ± 0.84% | 2.30 | 6.01 |

Now from value to compound, other results behind:

| IC50 (MDA-MB-231 [2]) | IC50 (HepG2 [3]) | inhibition at 20 µM (porcine brain tubulin) | Structure (SMILES) | SI HepG2 (HepG2 [1]) | SI MDA-MB-231 (MDA-MB-231 [4]) |
| --- | --- | --- | --- | --- | --- |
| 3.29 ± 0.18 µM | 6.74 ± 0.26 µM | 35.5 ± 0.51% | COc1ccc(/C=C/C(=O)/C=C/c2cn(-c3ccccc3)nc2-c2ccccc2)cc1O [Compound 10d, (1E,4E)-1-(1,3-Diphenyl-1H-pyrazol-4-yl)-5-(3-hydroxy-4-methoxyphenyl)penta-1,4-dien-3-one] | 1.25 | 2.55 |
| 5.5 ± 0.22 µM | 10.6 ± 1.38 µM | 40.76 ± 0.33% | COc1cc(/C=C/C(=O)/C=C/c2cn(-c3ccccc3)nc2-c2ccccc2)ccc1O [Compound 10c, (1E,4E)-1-(1,3-Diphenyl-1H-pyrazol-4-yl)-5-(4-hydroxy-3-methoxyphenyl)penta-1,4-dien-3-one] | 1.49 | – |
| 14.3 ± 0.37 µM | > 25 µM | – | COc1cc(/C=C/C(=O)/C=C/c2cn(-c3ccccc3)nc2-c2ccccc2)cc(OC)c1OC [Compound 10g, (1E,4E)-1-(1,3-Diphenyl-1H-pyrazol-4-yl)-5-(3,4,5-trimethoxyphenyl)penta-1,4-dien-3-one] | – | – |
| > 25 µM | > 25 µM | – | COc1ccc(/C=C/C(=O)/C=C/c2cn(-c3ccccc3)nc2-c2ccccc2)c(OC)c1 [Compound 10b, (1E,4E)-1-(2,4-Dimethoxyphenyl)-5-(1,3-diphenyl-1H-pyrazol-4-yl)penta-1,4-dien-3-one] | – | – |
| 22 ± 3.24 µM | > 25 µM | – | O=C(/C=C/c1ccc2c(c1)OCO2)/C=C/c1cn(-c2ccccc2)nc1-c1ccccc1 [Compound 10f, (1E,4E)-1-(Benzo[d][1,3]dioxol-5-yl)-5-(1,3-diphenyl-1H-pyrazol-4-yl)penta-1,4-dien-3-one] | – | – |
| 6.14 ± 0.33 µM | 13.5 ± 1.53 µM | – | CCOc1cc(/C=C/C(=O)/C=C/c2cn(-c3ccccc3)nc2-c2ccccc2)ccc1O [Compound 10e, (1E,4E)-1-(1,3-Diphenyl-1H-pyrazol-4-yl)-5-(4-hydroxy-3-ethoxyphenyl)penta-1,4-dien-3-one] | – | – |
| 23.3 ± 2.37 µM | > 25 µM | – | COc1ccc(/C=C/C(=O)/C=C/c2cn(-c3ccccc3)nc2-c2ccccc2)cc1OC [Compound 10a, (1E,4E)-1-(3,4-Dimethoxyphenyl)-5-(1,3-diphenyl-1H-pyrazol-4-yl)penta-1,4-dien-3-one] | – | – |
